The results in this text go back to US8598200B2, “KAT II inhibitors” (Pfizer Inc., priority 2010, dated 2013).

As usually defined, the IC50 is the concentration at which inhibition is half-maximal.

In the test the target is human KAT II (hKAT II) enzyme (Homo sapiens (Human), UniProt Q8N5Z0). Nature of the test: KAT II Inhibition Spectra Assay. The class given is biochemical. Conditions: decrease in OD370, L-kynurenine substrate, 37° C. for 15-20 h; values marked ^1 are the average of 2 IC50 determinations; read-out: KATII IC50 (nM; single determination unless otherwise indicated). On the procedure: Formation of kynurenic acid (KYNA) is indirectly assessed by a decrease in light absorbance at 370 nm (OD370) as the L-kynurenine (KYN) substrate is converted by the human KAT II (hKAT II) enzyme into KYNA. An inhibitor would therefore inhibit the decrease in OD370.
Sequence of human KAT II (hKAT II) enzyme (Q8N5Z0 30-425): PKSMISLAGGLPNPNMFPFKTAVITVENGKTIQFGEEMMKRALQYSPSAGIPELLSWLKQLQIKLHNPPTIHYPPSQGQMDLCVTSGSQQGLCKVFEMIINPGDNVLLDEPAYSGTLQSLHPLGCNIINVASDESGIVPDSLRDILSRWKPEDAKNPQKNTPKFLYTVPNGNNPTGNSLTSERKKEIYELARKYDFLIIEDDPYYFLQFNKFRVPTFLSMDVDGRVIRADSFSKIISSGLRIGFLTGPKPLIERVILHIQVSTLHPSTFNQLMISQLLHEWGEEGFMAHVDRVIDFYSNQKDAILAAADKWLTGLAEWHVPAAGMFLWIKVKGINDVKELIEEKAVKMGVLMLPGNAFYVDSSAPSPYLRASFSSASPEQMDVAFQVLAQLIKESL
The protocol was performed by placing the following reagents into a Costar 384 well black plate (30 μL total assay volume/well): • 10 μL of 3× concentrated compound; • 10 μL of 3× concentrated substrate mix (BGG (Sigma G-5009); 3 mM L-Kynurenine in 150 mM Tris Acetate (Sigma K3750); 3 mM α-ketoglutaric acid in 150 mM Tris Acetate (Sigma K2010); and 210 μM pyridoxal 5-phosphate (PLP) in 150 mM Tris Acetate (Sigma 9255)); and • 10 μL of 3× concentrated enzyme (15 nM enzyme in 150 mM Tris Acetate with 0.3% bovine serum).
Plates were sealed and incubated at 37° C. for 15-20 h before reading OD370 on a SpectraMax Plus plate reader. IC50s were generated by comparing the efficacy of compounds across a concentration range to inhibit a reduction in the OD370 value relative to assay wells with DMSO added in place of concentrated compound. Biological data for the Examples may be found in Table 2.
Regarding `N[C@H]1Cc2cn(Cc3ccccc3)nc2N(O)C1=O` [Example 1, (5S)-5-Amino-2-benzyl-7-hydroxy-2,4,5,7-tetrahydro-6H-pyrazolo[3,4-b]pyridin-6-one], the IC50 is 59.4 nM. Take `Cn1nc(Cc2ccccc2)c2c1N(O)C(=O)[C@@H](N)C2` [Example 2, (5S)-5-Amino-3-benzyl-7-hydroxy-1-methyl-1,4,5,7-tetrahydro-6H-pyrazolo[3,4-b]pyridin-6-one]: the IC50 was found to be 63.7 nM. In the case of `Cn1nc2c(c1Cc1ccccc1)C[C@H](N)C(=O)N2O` [Example 3, (5S)-5-Amino-3-benzyl-7-hydroxy-2-methyl-2,4,5,7-tetrahydro-6H-pyrazolo[3,4-b]pyridin-6-one] it was 11.5 nM; in that of `N[C@H]1Cc2c(cnn2Cc2ccccc2)N(O)C1=O` [Example 4, (6S)-6-Amino-1-benzyl-4-hydroxy-1,4,6,7-tetrahydro-5H-pyrazolo[4,3-b]pyridin-5-one], 22.5 nM; in that of `N[C@H]1Cc2c(c(C(F)(F)F)nn2Cc2ccccc2)N(O)C1=O` [Example 5, (6S)-6-Amino-1-benzyl-4-hydroxy-3-(trifluoromethyl)-1,4,6,7-tetrahydro-5H-pyrazolo[4,3-b]pyridin-5-one], 42.7 nM. In the case of `N[C@H]1Cc2cn(Cc3ccc(OC(F)(F)F)cc3)nc2N(O)C1=O` [Example 6, (5S)-5-Amino-7-hydroxy-2-[4-(trifluoromethoxy)benzyl]-2,4,5,7-tetrahydro-6H-pyrazolo[3,4-b]pyridin-6-one], the 50% inhibitory concentration (IC50) was found to be 43.6 nM. In the case of `N[C@H]1Cc2cn(-c3cccc(C(F)(F)F)c3)nc2N(O)C1=O` [Example 7, (5S)-5-Amino-7-hydroxy-2-[3-(trifluoromethyl)phenyl]-2,4,5,7-tetrahydro-6H-pyrazolo[3,4-b]pyridin-6-one] it was 74.7 nM; in that of `N[C@H]1Cc2cn(Cc3cccc4ccccc34)nc2N(O)C1=O` [Example 8, (5S)-5-amino-7-hydroxy-2-(1-naphthylmethyl)-2,4,5,7-tetrahydro-6H-pyrazolo[3,4-b]pyridin-6-one], 36 nM. As for `N[C@H]1Cc2cn(Cc3ccc4ccccc4c3)nc2N(O)C1=O` [Example 9, (5S)-5-amino-7-hydroxy-2-(2-naphthylmethyl)-2,4,5,7-tetrahydro-6H-pyrazolo[3,4-b]pyridin-6-one], the IC50 stood at 117 nM. In the case of `COc1ccccc1Cn1cc2c(n1)N(O)C(=O)[C@@H](N)C2` [Example 10, (5S)-5-amino-7-hydroxy-2-(2-methoxybenzyl)-2,4,5,7-tetrahydro-6H-pyrazolo[3,4-b]pyridin-6-one] it was 50.2 nM. In the case of `COc1cccc(Cn2cc3c(n2)N(O)C(=O)[C@@H](N)C3)c1` [Example 11, (5S)-5-amino-7-hydroxy-2-(3-methoxybenzyl)-2,4,5,7-tetrahydro-6H-pyrazolo[3,4-b]pyridin-6-one] it was 8.93 nM.

`Cc1c2c(nn1Cc1ccccc1)N(O)C(=O)[C@@H](N)C2` [Example 12, (5S)-5-amino-2-benzyl-7-hydroxy-3-methyl-2,4,5,7-tetrahydro-6H-pyrazolo[3,4-b]pyridin-6-one]: the IC50 was found to be 81.6 nM. For `N[C@H]1Cc2nn(Cc3ccccc3)cc2N(O)C1=O` [Example 13, (6S)-6-amino-2-benzyl-4-hydroxy-2,4,6,7-tetrahydro-5H-pyrazolo[4,3-b]pyridin-5-one] the value was 182 nM.

As for `N[C@H]1Cc2cn(-c3ccccc3)nc2N(O)C1=O` [Example 14, (5S)-5-amino-7-hydroxy-2-phenyl-2,4,5,7-tetrahydro-6H-pyrazolo[3,4-b]pyridin-6-one], the IC50 worked out at 24.3 nM. For `COc1ccc(Cn2cc3c(n2)N(O)C(=O)[C@@H](N)C3)cc1` [Example 15, (5S)-5-amino-7-hydroxy-2-(4-methoxybenzyl)-2,4,5,7-tetrahydro-6H-pyrazolo[3,4-b]pyridin-6-one] the value was 28.3 nM. Consider `Cc1c2c(nn1-c1ccccc1)C[C@H](N)C(=O)N2O` [Example 17, (6S)-6-amino-4-hydroxy-3-methyl-2-phenyl-2,4,6,7-tetrahydro-5H-pyrazolo[4,3-b]pyridin-5-one], for which the IC50 was 2010 nM. In the case of `Cn1ncc2c1N(O)C(=O)[C@@H](N)C2` [Example 18, (5S)-5-amino-7-hydroxy-1-methyl-1,4,5,7-tetrahydro-6H-pyrazolo[3,4-b]pyridin-6-one] it was 329 nM.

Take `N[C@H]1Cc2cn(C3CCC3)nc2N(O)C1=O` [Example 19, (5S)-5-amino-2-cyclobutyl-7-hydroxy-2,4,5,7-tetrahydro-6H-pyrazolo[3,4-b]pyridin-6-one]: the IC50 is 81.3 nM. In the case of `CC(C)n1cc2c(n1)N(O)C(=O)[C@@H](N)C2` [Example 20, (5S)-5-amino-7-hydroxy-2-isopropyl-2,4,5,7-tetrahydro-6H-pyrazolo[3,4-b]pyridin-6-one] it was 153 nM. As for `COc1ccc(Cc2nn(C)c3c2C[C@H](N)C(=O)N3O)cc1` [Example 21], the concentration for half-maximal inhibition (IC50) came to 440 nM. For `COc1cccc(Cc2nn(C)c3c2C[C@H](N)C(=O)N3O)c1` [Example 22, (5S)-5-amino-7-hydroxy-3-(3-methoxybenzyl)-1-methyl-1,4,5,7-tetrahydro-6H-pyrazolo[3,4-b]pyridin-6-one] the value was 65.6 nM; for `CCn1nc2c(c1Cc1ccccc1)C[C@H](N)C(=O)N2O` [Example 23, (5S)-5-amino-3-benzyl-2-ethyl-7-hydroxy-2.4,5,7-tetrahydro-6H-pyrazolo[3,4-b]pyridin-6-one], 24.3 nM; for `CC(C)n1nc2c(c1Cc1ccccc1)C[C@H](N)C(=O)N2O` [Example 24, (5S)-5-amino-3-benzyl-7-hydroxy-2-isopropyl-2,4,5,7-tetrahydro-6H-pyrazolo[3,4-b]pyridin-6-one], 63 nM. In the case of `Cn1nc2c(c1Cc1cccc(C(F)(F)F)c1)C[C@H](N)C(=O)N2O` [Example 25, (5S)-5-amino-7-hydroxy-2-methyl-3-[3-(trifluoromethyl)benzyl]-2,4,5,7-tetrahydro-6H-pyrazolo[3,4-b]pyridin-6-one] it was 42.2 nM; in that of `Cn1nc2c(c1Cc1ccccc1C(F)(F)F)C[C@H](N)C(=O)N2O` [Example 26, (5S)-5-amino-7-hydroxy-2-methyl-3-[2-(trifluoromethyl)benzyl]-2.4,5,7-tetrahydro-6H-pyrazolo[3,4-b] pyridin-6-one], 40.7 nM; in that of `Cn1nc2c(c1Cc1ccc(C(F)(F)F)cc1)C[C@H](N)C(=O)N2O` [Example 27, (5S)-5-amino-7-hydroxy-2-methyl-3-[4-(trifluoromethyl)benzyl]-2,4,5,7-tetrahydro-6H-pyrazolo[3,4-6]pyridin-6-one], 37 nM.

For `N[C@H]1Cc2cn(-c3ccccc3C(F)(F)F)nc2N(O)C1=O` [Example 28, (5S)-5-amino-7-hydroxy-2-[2-(trifluoromethyl)phenyl]-2,4,5,7-tetrahydro-6H-pyrazolo[3,4-b]pyridin-6-one], the half-maximal inhibitory concentration (IC50) was determined as 38.8 nM. For `N[C@H]1Cc2cn(-c3ccc(C(F)(F)F)cc3)nc2N(O)C1=O` [Example 29, (5S)-5-amino-7-hydroxy-2-[4-(trifluoromethyl)phenyl]-2,4,5,7-tetrahydro-6H-pyrazolo[3,4-b]pyridin-6-one], the IC50 was 31.6 nM.
